# Laboratory results reported in ChEMBL document CHEMBL5727333, “3-amino-1,5,6,7-tetrahydro-4H-indol-4-ones” (2019).
# Molecular target: Mitotic checkpoint serine/threonine-protein kinase BUB1 (Homo sapiens, UniProt O43683)
# Assay: Kinase Assay: In a typical assay 11 different concentrations of each compound (0.1 nM, 0.33 nM, 1.1 nM, 3.8 nM, 13 nM, 44 nM, 0.15 μM, 0.51 μM, 1.7 μM, 5.9 μM and 20 μM) were tested in duplicate within the same microtiter plate. To this end, 100-fold concentrated compound solutions (in DMSO) were previously prepared by serial dilution (1:3.4) of 2 mM stocks in a clear low volume 384-well source microtiter plate (Greiner Bio-One, Frickenhausen, Germany), from which 50 nl of compounds were transferred into a black low volume test microtiter plate from the same supplier. […] The resulting mixture (5 μL final volume) was incubated at 22° C. during 60 min., and the reaction was stopped by the addition of 5 μL of an aqueous EDTA-solution (50 mM EDTA, in 100 mM HEPES pH 7.5 and 0.2% (w/v) bovine serum albumin) which also contained the TR-FRET detection reagents (0.2 μM streptavidin-XL665 [Cisbio Bioassays, Codolet, France] and 1 nM anti-phosho-Serine antibody [Merck Millipore, cat. #35-002] and 0.4 nM LANCE EU-W1024 labeled anti-mouse IgG antibody [Perkin-Elmer, product no. AD0077, alternatively a Terbium-cryptate-labeled anti-mouse IgG antibody from Cisbio Bioassays can be used]). The stopped reaction mixture was further incubated 1 h at 22° C. in order to allow the formation of complexes between peptides and detection reagents.
# Sequence of Mitotic checkpoint serine/threonine-protein kinase BUB1 (O43683 whole entry): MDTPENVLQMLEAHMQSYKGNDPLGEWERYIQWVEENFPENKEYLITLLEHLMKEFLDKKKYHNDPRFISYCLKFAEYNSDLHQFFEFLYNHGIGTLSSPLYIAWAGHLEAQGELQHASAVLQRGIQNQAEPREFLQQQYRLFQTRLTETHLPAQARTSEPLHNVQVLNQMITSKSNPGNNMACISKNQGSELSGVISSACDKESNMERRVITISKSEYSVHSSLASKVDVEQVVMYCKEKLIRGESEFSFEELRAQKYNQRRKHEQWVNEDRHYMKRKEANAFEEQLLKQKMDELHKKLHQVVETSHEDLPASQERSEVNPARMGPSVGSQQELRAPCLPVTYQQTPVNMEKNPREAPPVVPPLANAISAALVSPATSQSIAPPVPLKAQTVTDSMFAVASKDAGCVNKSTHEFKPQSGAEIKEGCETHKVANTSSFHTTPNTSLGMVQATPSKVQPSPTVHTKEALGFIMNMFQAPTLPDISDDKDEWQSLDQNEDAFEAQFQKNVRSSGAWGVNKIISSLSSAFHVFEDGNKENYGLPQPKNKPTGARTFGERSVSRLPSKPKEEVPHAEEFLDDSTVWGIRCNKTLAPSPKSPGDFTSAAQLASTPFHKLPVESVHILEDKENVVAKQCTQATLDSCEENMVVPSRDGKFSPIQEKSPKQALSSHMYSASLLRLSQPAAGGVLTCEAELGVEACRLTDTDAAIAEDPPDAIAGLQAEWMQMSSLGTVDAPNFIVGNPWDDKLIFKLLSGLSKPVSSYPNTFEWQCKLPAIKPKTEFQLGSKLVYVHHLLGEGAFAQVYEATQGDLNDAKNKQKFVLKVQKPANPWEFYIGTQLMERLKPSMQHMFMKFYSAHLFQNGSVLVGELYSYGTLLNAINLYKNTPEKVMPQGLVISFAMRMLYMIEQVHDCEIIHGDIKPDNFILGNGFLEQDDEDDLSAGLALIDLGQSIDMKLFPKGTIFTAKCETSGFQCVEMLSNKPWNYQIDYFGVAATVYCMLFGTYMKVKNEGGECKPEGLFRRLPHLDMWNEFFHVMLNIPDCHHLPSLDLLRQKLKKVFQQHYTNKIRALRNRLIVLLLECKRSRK
row,IC50,Compound
1,58.9 nM,CC(=O)Nc1cc(-c2[nH]c3c(c2Nc2ccc(F)cc2)C(=O)CCC3)ccn1
2,497 nM,CC1(C)CC(=O)c2c([nH]c(-c3ccnc(Nc4cccc(F)c4)c3)c2Nc2cccc(F)c2)C1
3,85.5 nM,Cc1cccc(Nc2c(-c3ccncc3)[nH]c3c2C(=O)CC(C)(C)C3)c1F
4,733 nM,CC1(C)CC(=O)c2c([nH]c(-c3ccnc(NS(C)(=O)=O)c3)c2Nc2ccccc2)C1
5,53.6 nM,CC1(C)CC(=O)c2c([nH]c(-c3ccnc(Cl)c3)c2Nc2ccccc2)C1
6,99.8 nM,CC1(C)CC(=O)c2c([nH]c(-c3ccnc(Br)c3)c2Nc2ccccc2)C1
7,6660 nM,CS(=O)(=O)Nc1cc(-c2[nH]c3c(c2Nc2ccccc2)C(=O)CCC3)ccn1
8,1170 nM,CC(C)Oc1cccc(Nc2c(-c3ccncc3)[nH]c3c2C(=O)CC(C)(C)C3)c1
